Test system: human IgG antibodies in human serum samples
Assay: EIA of human antibody reactivities to overlapping synthetic peptides of TTV ORF1 and ORF2 (Tables 2 and 3)
Assay type: binding
Details: for optical density (OD) at 405 nm: serum diluted 1:100, OD over 0.500 considered positive; for optical density (OD) at 405 nm, EIA reactivity of human serum sample 1: serum sample 1, negative for TTV DNA by PCR; for optical density (OD) at 405 nm, EIA reactivity of human serum sample 1 / optical density (OD) at 405 nm, EIA reactivity of human serum sample 2 / optical density (OD) at 405 nm, EIA reactivity of human serum sample 3 / optical density (OD) at 405 nm, EIA reactivity of human serum sample 4 / optical density (OD) at 405 nm, EIA reactivity of human serum sample 5 / optical density (OD) at 405 nm, EIA reactivity of human serum sample 6 / optical density (OD) at 405 nm, EIA reactivity of human serum sample 7 / optical density (OD) at 405 nm, EIA reactivity of human serum sample 9 / optical density (OD) at 405 nm, EIA reactivity of human serum sample 11 / optical density (OD) at 405 nm, EIA reactivity of human serum sample 18 / optical density (OD) at 405 nm, EIA reactivity of human serum sample 36 / optical density (OD) at 405 nm, EIA reactivity of human serum sample 48 / optical density (OD) at 405 nm, EIA reactivity of human serum sample 98 / optical density (OD) at 405 nm, EIA reactivity of human serum sample 110 / optical density (OD) at 405 nm, EIA reactivity of human serum sample 155 / optical density (OD) at 405 nm, EIA reactivity of human serum sample 157: serum 1:100, peptide coated 10 μg/ml, OD over 0.500 positive; for optical density (OD) at 405 nm, EIA reactivity of human serum sample 2: serum sample 2, negative for TTV DNA by PCR; for optical density (OD) at 405 nm, EIA reactivity of human serum sample 3: serum sample 3, negative for TTV DNA by PCR; for optical density (OD) at 405 nm, EIA reactivity of human serum sample 4: serum sample 4, negative for TTV DNA by PCR; for optical density (OD) at 405 nm, EIA reactivity of human serum sample 5: serum sample 5, negative for TTV DNA by PCR; for optical density (OD) at 405 nm, EIA reactivity of human serum sample 6: serum sample 6, negative for TTV DNA by PCR; for optical density (OD) at 405 nm, EIA reactivity of human serum sample 7: serum sample 7, negative for TTV DNA by PCR; for optical density (OD) at 405 nm, EIA reactivity of human serum sample 9: serum sample 9, positive for TTV DNA by PCR; for optical density (OD) at 405 nm, EIA reactivity of human serum sample 11: serum sample 11, negative for TTV DNA by PCR; for optical density (OD) at 405 nm, EIA reactivity of human serum sample 18: serum sample 18, positive for TTV DNA by PCR; for optical density (OD) at 405 nm, EIA reactivity of human serum sample 36: serum sample 36, positive for TTV DNA by PCR; for optical density (OD) at 405 nm, EIA reactivity of human serum sample 48: serum sample 48, positive for TTV DNA by PCR; for optical density (OD) at 405 nm, EIA reactivity of human serum sample 98: serum sample 98, positive for TTV DNA by PCR; for optical density (OD) at 405 nm, EIA reactivity of human serum sample 110: serum sample 110, positive for TTV DNA by PCR; for optical density (OD) at 405 nm, EIA reactivity of human serum sample 155: serum sample 155, positive for TTV DNA by PCR; for optical density (OD) at 405 nm, EIA reactivity of human serum sample 157: serum sample 157, positive for TTV DNA by PCR; for human reactivity to peptide (reactive peptides within ORF1): tested human sera
Text: Overlapping peptides (18 amino acids in length containing an 8 amino acid overlap) corresponding to regions of the ORFI and ORF2 of TTV (TABLE 1; Genebank accession no AB008394) were produced by a multiple peptide synthesizer (Syro, Syntex, Germany) using standard Fmoc chemistry (Sallberg et al., Immunology Letters, 30:59 68 (1991), herein expressly incorporated by reference in its entirety).
The EIAs used to identify which peptides interacted with human sera followed protocols known in the art. (See Zhang et al., J Gen Virol, 78:2735-2746 (1997), herein expressly incorporated by reference in its entirety). Briefly, microplates (Nunc, Denmark) were coated for 48 hours with synthetic peptides at a concentration of 10 μg/ml in 0.05M sodium carbonate buffer pH 9.6. After blocking for 2 hours at room temperature with phosphate buffered saline containing 1% bovine serum albumin, 2% goat serum and 0.05% Tween 20 (dilution buffer) the plates were incubated with human sera diluted 1:100 in dilution buffer. Bound human IgG was detected by incubation with anti-human IgG antibodies conjugated to alkaline phosphatase (Sigma Chemicals, St. Louis, Mo.). The plates were developed by the addition of […] (Sigma) and the optical densities were determined at 405 nm.

[1] = human serum sample 1, negative for TTV DNA by PCR
[2] = human serum sample 2, negative for TTV DNA by PCR
[3] = human serum sample 3, negative for TTV DNA by PCR
[4] = human serum sample 4, negative for TTV DNA by PCR
[5] = human serum sample 5, negative for TTV DNA by PCR
[6] = human serum sample 6, negative for TTV DNA by PCR
[7] = human serum sample 7, negative for TTV DNA by PCR
[8] = human serum sample 9, positive for TTV DNA by PCR
[9] = human serum sample 11, negative for TTV DNA by PCR
[10] = human serum sample 18, positive for TTV DNA by PCR
[11] = human serum sample 36, positive for TTV DNA by PCR
[12] = human serum sample 48, positive for TTV DNA by PCR
[13] = human serum sample 98, positive for TTV DNA by PCR
[14] = human serum sample 110, positive for TTV DNA by PCR
[15] = human serum sample 155, positive for TTV DNA by PCR
[16] = human serum sample 157, positive for TTV DNA by PCR

| Sequence | optical density (OD) at 405 nm [1] | optical density (OD) at 405 nm [2] | optical density (OD) at 405 nm [3] | optical density (OD) at 405 nm [4] | optical density (OD) at 405 nm [5] | optical density (OD) at 405 nm [6] | optical density (OD) at 405 nm [7] | optical density (OD) at 405 nm [8] | optical density (OD) at 405 nm [9] | optical density (OD) at 405 nm [10] | optical density (OD) at 405 nm [11] | optical density (OD) at 405 nm [12] | optical density (OD) at 405 nm [13] | optical density (OD) at 405 nm [14] | optical density (OD) at 405 nm [15] | optical density (OD) at 405 nm [16] | optical density (OD) at 405 nm, EIA reactivity of human serum sample 1 | optical density (OD) at 405 nm, EIA reactivity of human serum sample 2 | optical density (OD) at 405 nm, EIA reactivity of human serum sample 3 | human reactivity to peptide (reactive peptides within ORF1) (EIA) | other results |
| --- | --- | --- | --- | --- | --- | --- | --- | --- | --- | --- | --- | --- | --- | --- | --- | --- | --- | --- | --- | --- | --- |
| KINTMPPFLDTELTAPS (Peptide Immunogen) [compound 18, overlapping synthetic peptide of TTV ORF1] | 0.09 OD | 0.09 OD | 0.15 OD | 0.29 OD | 0.07 OD | 0.13 OD | 0.62 OD | 0.08 OD | 0.28 OD | 0.07 OD | 0.13 OD | 0.12 OD | 0.04 OD | 0.08 OD | 0.19 OD | 0.18 OD | 0.00 OD | 0.00 OD | 0.00 OD | Reactive | optical density (OD) at 405 nm, EIA reactivity of human serum sample 4: 0.00 OD; optical density (OD) at 405 nm, EIA reactivity of human serum sample 5: 0.00 OD; optical density (OD) at 405 nm, EIA reactivity of human serum sample 6: 0.00 OD; optical density (OD) at 405 nm, EIA reactivity of human serum sample 7: 0.00 OD; optical density (OD) at 405 nm, EIA reactivity of human serum sample 9: 0.00 OD; optical density (OD) at 405 nm, EIA reactivity of human serum sample 11: 0.00 OD; optical density (OD) at 405 nm, EIA reactivity of human serum sample 18: 0.00 OD; optical density (OD) at 405 nm, EIA reactivity of human serum sample 36: 0.00 OD; optical density (OD) at 405 nm, EIA reactivity of human serum sample 48: 0.00 OD; optical density (OD) at 405 nm, EIA reactivity of human serum sample 98: 0.00 OD; optical density (OD) at 405 nm, EIA reactivity of human serum sample 110: 0.00 OD; optical density (OD) at 405 nm, EIA reactivity of human serum sample 155: 0.00 OD; optical density (OD) at 405 nm, EIA reactivity of human serum sample 157: 0.00 OD |
| EDGGAGGDADHGGAAGGP (Peptide Immunogen) [ORF2 peptide 19, overlapping synthetic peptide of TTV ORF2] |  |  |  |  |  |  |  |  |  |  |  |  |  |  |  |  |  |  |  |  | number of tested human sera reactive with the peptide (ORF2 peptide, EIA): Two of the tested human sera were reactive |
| QKESLLFPPVKLLRRVP (Peptide Immunogen) [compound 69, overlapping synthetic peptide of TTV ORF1] | 0.10 OD | 0.15 OD | 0.16 OD | 0.14 OD | 0.12 OD | 0.51 OD | 0.11 OD | 0.09 OD | 0.13 OD | 0.08 OD | 0.08 OD | 0.09 OD | 0.10 OD | 0.11 OD | 0.15 OD | 0.21 OD |  |  |  | Reactive |  |
| VLICGENTVSRNYATHS (Peptide Immunogen) [compound 10, overlapping synthetic peptide of TTV ORF1] | 0.09 OD | 0.10 OD | 0.11 OD | 0.11 OD | 0.11 OD | 0.13 OD | 1.09 OD | 0.09 OD | 0.12 OD | 0.07 OD | 0.07 OD | 0.11 OD | 0.06 OD | 0.09 OD | 0.12 OD | 0.12 OD | 0.09 OD | 0.11 OD | 0.10 OD | Reactive | optical density (OD) at 405 nm, EIA reactivity of human serum sample 4: 0.09 OD; optical density (OD) at 405 nm, EIA reactivity of human serum sample 5: 0.08 OD; optical density (OD) at 405 nm, EIA reactivity of human serum sample 6: 0.11 OD; optical density (OD) at 405 nm, EIA reactivity of human serum sample 7: 0.08 OD; optical density (OD) at 405 nm, EIA reactivity of human serum sample 9: 0.09 OD; optical density (OD) at 405 nm, EIA reactivity of human serum sample 11: 0.10 OD; optical density (OD) at 405 nm, EIA reactivity of human serum sample 18: 0.09 OD; optical density (OD) at 405 nm, EIA reactivity of human serum sample 36: 0.07 OD; optical density (OD) at 405 nm, EIA reactivity of human serum sample 48: 0.08 OD; optical density (OD) at 405 nm, EIA reactivity of human serum sample 98: 0.08 OD; optical density (OD) at 405 nm, EIA reactivity of human serum sample 110: 0.08 OD; optical density (OD) at 405 nm, EIA reactivity of human serum sample 155: 0.11 OD; optical density (OD) at 405 nm, EIA reactivity of human serum sample 157: 0.13 OD |

Source: patent US20030022158A1, “Peptides from the TT virus sequence and monospecific antibodies binding to the TT virus” (priority 1999, published 2003)
